{
  "source": "paper PMC5641551",
  "about": "“Chemical Proteomics for Target Discovery of Head-to-Tail Cyclized Mini-Proteins” (Frontiers in Chemistry, 2017)",
  "key": {"[1]": {"tested_on": "14-3-3 proteins / 25 kDa protein in Jurkat cell lysates", "assay": "photo-affinity pull down, Jurkat cell lysate, with competition", "type": "binding, human", "settings": "competitor at 20-, 60- and 100-fold molar excess of biotinylated probe [T20K,W23Bpa]kB1, silver-stained gel", "procedure": "Splenocytes or Jurkat cells were lysed with 25 mM Tris-HCl pH 7.4, 40 mM KCl, 2.5 mM MgSO4 2.5 mM CaCl2, 2% (v/v) glycerol, 1 mM EDTA under repeated freeze-thaw cycles and 10 min sonification. All experiments were performed in buffer with 1x complete protease inhibitor cocktail (Hoffman-La Roche, Basel, Switzerland). Cell membranes and debris were pelleted for 30 min at 16,000 × g and the supernatant corresponds to the “soluble cell lysate.” Protein concentration was determined using a bicinchoninic acid assay kit (Thermo Scientific) and DTT (1 mM) was added to keep redox potential constant during binding experiments. Photo-affinity pull down samples were submitted to denaturing sodium dodecyl sulfate polyacrylamide gel electrophoresis (PAGE). For immunoblotting according to earlier published protocols (Gruber et al., [2007]; Bergmayr et al., [2013]) proteins were semi-dry transferred onto a nitrocellulose membrane 0.45 μM (Amersham Protran, GE Healthcare, Austria) using a Fast Semi-dry blotter (Bio-Rad) at 0.25 mA per gel for 1 h. […] Chemo-luminescence signals were detected on an imaging system FluorChem HD2 (Alpha Innotech, CA, United States). […] Pixel quantification was carried out using ImageJ v1.47 (National Institute for Health). […]"}, "[2]": {"tested_on": "14-3-3 proteins / 25 kDa protein band in murine splenocyte lysates", "assay": "photo-affinity pull down, splenocyte lysate, with competitors", "type": "binding, mouse", "settings": "competitors at 100-fold molar excess versus bait [T20K,W23Bpa]kB1, in-gel digestion and proteomics", "procedure": "Splenocytes or Jurkat cells were lysed with 25 mM Tris-HCl pH 7.4, 40 mM KCl, 2.5 mM MgSO4 2.5 mM CaCl2, 2% (v/v) glycerol, 1 mM EDTA under repeated freeze-thaw cycles and 10 min sonification. All experiments were performed in buffer with 1x complete protease inhibitor cocktail (Hoffman-La Roche, Basel, Switzerland). Cell membranes and debris were pelleted for 30 min at 16,000 × g and the supernatant corresponds to the “soluble cell lysate.” Protein concentration was determined using a bicinchoninic acid assay kit (Thermo Scientific) and DTT (1 mM) was added to keep redox potential constant during binding experiments. Photo-affinity pull down samples were submitted to denaturing sodium dodecyl sulfate polyacrylamide gel electrophoresis (PAGE). For immunoblotting according to earlier published protocols (Gruber et al., [2007]; Bergmayr et al., [2013]) proteins were semi-dry transferred onto a nitrocellulose membrane 0.45 μM (Amersham Protran, GE Healthcare, Austria) using a Fast Semi-dry blotter (Bio-Rad) at 0.25 mA per gel for 1 h. Primary rabbit anti-GFP antibody (1:5,000) was from Invitrogen (A6455), rabbit anti-GST antibody (1:2,500) from Abcam (ab9085), and mouse anti-human calcineurin subunit A antibody (1:2,000) clone BE2.1 from eBioscience. Secondary ECL anti-mouse (NA931V) or ECL anti-rabbit (NA934VS) IgG antibodies (1:10,000) were conjugated with horse radish peroxidase (GE Healthcare). Chemo-luminescence signals were detected on an imaging system FluorChem HD2 (Alpha Innotech, CA, United States). For silver staining protein gels were treated immediately after electrophoresis with fixing solution EtOH/ddH2O/acetic acid 50/40/10% (v/v/v) for 20 min. Gels had to be washed acid free, first with 50% (v/v) EtOH for 10 min and with ddH2O for 2 h. Gels were exposed to sensitization buffer 0.025% Na2S2O3 in ddH2O for 3 min, followed by 2 min wash with ddH2O. Gels were silver loaded using a 0.15% AgNO3 solution for 45 min in the dark. The protein bands were stained in development buffer formaldehyde/Na2CO3 0.04/2% (v/w) under rigorous shaking. The reaction was quenched with 5% (v/v) acetic acid solution and the gels were stored until further processing in the stopping buffer at 4°C. Pixel quantification was carried out using ImageJ v1.47 (National Institute for Health).\nBiotin-LC-LC-labeled (ThermoFisher) peptides (1–5 nmoles) with or without (non-biotinylated) competitor (20–100-fold molar excess) were incubated with Jurkat cell or murine splenocyte cell lysates (150–500 μg proteins) for 2 h at 4°C in the presence of protease inhibitors. UV-activation of photo-crosslinking moiety benzophenone was induced by irradiation at 360 nm on ice for 15 min (Stratalinker, Stratagene, CA, United States). […]"}, "EAE disease in mice": {"tested_on": "EAE disease in mice", "settings": "cited from earlier work", "text": "14-3-3s are ubiquitous adaptor proteins that are involved in cell signaling, cell cycle progression and apoptosis as well as protein-protein interaction and cellular transport (Aghazadeh and Papadopoulos, [2016]). The 14-3-3 family is often described as a chimera, since knockout of single isoforms may remain without or with minor phenotypic changes due to functional rescue through the recruitment of other family members. […] Many tumor suppressors or oncogenes are regulated by 14-3- ... || Meanwhile, plant-derived cyclotides are recognized for their pharmaceutical potential. […] Additionally, cyclotides are considered as promising templates for the design of stabilized, orally active peptide epitopes (Jagadish and Camarero, [2010]; Craik et al., [2012]). The cystine-knot motif is capable of tolerance to the incorporation of several amino acid long sequences without impacting its endogenous structure and stability. Using this ..."}},
  "note": "No end group written: not given here.",
  "data": [
    {"sequence": "CGETCVGGTCNTPGCKCSWPVCTRNGLPV (also: bicyclic or more (positions not given here)) [[T20K]kB1, synthetic cyclotide drug candidate, Thr20 to Lys mutant of kalata B1]", "values": [
      {"measurement": "effect of competitor on 25 kDa protein band intensity", "setting": "[1]", "result": "revealed an effect on the band intensity of a 25 kDa protein"},
      {"measurement": "competition effect for 14-3-3 proteins (order)", "setting": "[2]", "result": "competition effect in the order [T20K]kB1 < [T20K,W23Bpa]kB1 < R18"},
      {"measurement": "progression of typical symptoms in mouse model of multiple sclerosis", "setting": "EAE disease in mice; oral administration, ref Thell et al., 2016", "result": "halted the progression of typical symptoms"},
      {"measurement": "symptoms of the EAE disease in mice", "setting": "EAE disease in mice; reported, reference not given", "result": "reduce the symptoms of the EAE disease in mice"}
    ]}
  ]
}
